Assay results taken from patent publication US20140161897A1, “METHOD FOR TREATING CANCERS, SUCH AS MYELOMA AND BREAST CANCER, WITH A COMBINATION OF TBL-12 AND VELCADE” (priority 2012, published 2014).

System: human myeloma cells (U266, MM1, KMS1, and APR1)
Experiment: MTT cell survival of IL-6 or TNFα stimulated myeloma cells
Type: cell-based
Settings: U-266, with constant TBL-12 100 ug/ml, read-out: IC50 for Velcade, in combination with the TBL-12
Experimental: Different human myeloma cells (U266, MM1, KMS1, and APR1), which are commercially available were cultured in standard 96 well plates using standard methods to exponential growth face. The cells were stimulated by either 1L-6 (5 ng/ml), or TNFα (5 ng/ml).
The cells were then contacted with a combination of a constant concentration of TBL-12 (100 ug/ml), either by itself, or with various concentration of Velcade (2.5, 5, 10, and 15 ng). Cells which received neither TBL-12 nor Velcade were used as a control. Cell survival was measured, using an MTT assay, at 24, 48, and 72 hours.

CC(C)C[C@H](NC(=O)[C@H](Cc1ccccc1)NC(=O)c1cnccn1)B(O)O [Velcade, Bortezomib]
IC50: ~5 ng/mL
